Square brackets hold non-standard residues; d marks the D form. Ends that are not written are not given here. Cha = N[C@@H](CC1CCCCC1)C(=O)O; Orn = NCCC[C@H](N)C(=O)O; βAla = NCCC(=O)O
Assays:
[1] = tested on: Zucker (fa/fa) rat hemidiaphragm muscle; assay: In vitro glycogen synthesis (glucose incorporation into glycogen) in hemidiaphragm muscle with exogenous insulin; assay type: cell-based; parameters: key to Activity: insulin-potentiating: improved activity compared to insulin alone; inactive: equal activity compared to insulin alone; insulin antagonist: reduced activity compared to insulin alone; *-**: increasing insulin-potentiating activity; details: for insulin-potentiating activity on in vitro glycogen synthesis (in words): with 1 mU/ml exogenous insulin
Procedure: In vitro insulin-potentiating effects of the synthetic peptide analogues were assessed by measuring the rates of exogenous glucose incorporation into glycogen in rat hemidiaphragms (Lim et al, 1992). Hemidiaphragms from overnight-fasted Zucker fatty(fa/fa) female rats were dissected, and divided into segments of approximate 35-50 mg each. Tissues from the same rat were used for all groups. The tissue was incubated in 2 ml of Krebs-Ringer bicarbonate (KRB) buffer (pH 7.4) containing [^14C]glucose (5.5 mM, final specific activity 0.05 mCi/mmol) under an atmosphere of 95% 02-5% CO2 at 37° C. for 1.5 hr. After incubation, tissues were removed, washed with cold buffer and blotted. Tissues were digested, the muscle glycogen was precipitated and the ^14C-radioactivity was counted in a Wallac 1410 liquid scintillation counter. The biological activity of peptide analogues was measured as the rate of mmol glucose incorporation into muscle glycogen/g tissue/hr.
The sensitivity of hemidiaphragm muscle tissue to insulin (0.1-100 mU/ml) on glycogen synthesis was first analyzed. The dose response curves for peptide analogues on the insulin-potentiating effect to glycogen synthesis were then measured using cumulative increasing concentrations (10^−3 10 μmol/ml) of peptides in the presence of insulin (1 mU/ml). The biological activity of each peptide analogue was measured as the rate of glucose incorporation into muscle glycogen (μmol/g tissue/hr), and represented by the mean±SEM from eight determinations.
To determine the insulin-potentiating effect of the peptide analogues, the rates of incorporation of glucose into muscle glycogen were measured. The rates of glycogen synthesis (μmol/g tissue/hr) were 0.52±0.05, 0.60±0.04, 1.27±0.06 and 1.52±0.07 inresponse to 0.33, 1, 3.33 and 10 mU/ml insulin respectively, as shown in FIG. 1.
The insulin-potentiating effect of the peptide analogues was then observed by studying their dose response. curves for glucose incorporation into glycogen in the presence of 1 mU/ml exogenous insulin. The effects of peptides 1, 3, 4, 6, 7, 8 and 10 were evident at doses higher than 0.01 μmol/ml, and continued to increase with increasing peptide concentration to 1 μmol/ml, as shown in FIGS. 2A and 2B.
The activity of each analogue was assessed by in vitro measurement of glycogen synthesis in muscle, as described above.

[2] = tested on: Zucker fatty (fa/fa) rats; assay: Basal blood glucose determination after i.p. peptide; assay type: in vivo, rat; details: 10 μmol/kg body weight i.p., over 150 min, vs saline
Procedure: Overnight-fasted Zucker fatty(fa/fa) female rats were anaesthetized with sodium pentobarbitone (60 mg/kg body weight). After 45 min, basal blood glucose samples were taken from the tail vein, followed immediately by intraperitoneal (i.p.) injection of saline (control) or the peptide analogue (test, 10 μmol/kg body weight) in 0.4 ml of saline. Blood samples were taken at 15, 30, 60, 90, 120, 150 minutes after injection, and the blood glucose level in each sample was measured immediately by the glucose oxidase method, using a YSI Model-2300 STAT glucose analyzer (Yellow Spring, Ohio). Six animals for each group were used.
The reduction of basal blood glucose levels in animals by different peptide analogues administered intraperitoneally (i.p.)at a dose of 10 μmol/kg body weight was measured for over 150 min.

normal male Wistar rats = assay: Intravenous insulin tolerance test (IVITT); assay type: in vivo, rat; details: 5 μmol/kg i.v.; for insulin-potentiating effect on decreasing blood glucose in IVITT (in words): from 30 min after commencement; for Reduction in Blood Glucose: 0.1 U insulin/kg
Procedure: IVITTs (0.1 U insulin/kg body weight) were performed on overnight-fasted Wistar male rats as previously described (Lim et al, 1992). Blood samples were taken for glucose estimation at 15, 30, 45, 60 min after the commencement of the tests. Six animals in each group were used.
IVITTs were performed on normal male Wistar rats after a single intravenous (i.v.) injection of the hGH peptide analogues at a dose of 5 μmol/kg body weight. The insulin-potentiating effects of peptides 6, 7, 8 and 10 on decreasing blood glucose levels of treated animals became significant since 30 min after the commencement of the test. Bioactivity was retained when the Arg^8 or Phe^10 residue of Asu^11-hGH(6-13) peptide was substituted with Lys or Tyr respectively (1.92±0.17 or 1.62±0.18 vs. 1.65±0.12 mmol/L at 45 min), as shown in Table 3. However, no insulin-potentiating effect was observed when either Arg^8 or Phe^10 was substituted by Gly (0.92±0.08 or 1.08±0.08 mmol/L respectively vs. 1.00±0.10 mmol/L of control at 45 min). Asu^11-hGH(8-13) also elicited this insulin-potentiating effect, but with lower potency.

[3] = Table 5, compared to insulin alone
[4] = Table 6 (corrected), summary of Table 5

Ala-Gly-Phe-Phe (AGFF-NH2) [Peptide 12]
Activity [1, 3]: inactive

Arg-Ala-Phe-Phe-NH2 (RAFF-NH2) [Peptide 13]
Activity [1, 3]: inactive
Activity [1, 4]: inactive

Arg-D-Ala-Phe-Tyr-NH2 (R[dA]FY-NH2; N-terminus assumed; SMILES C[C@@H](NC(=O)[C@@H](N)CCCNC(=N)N)C(=O)N[C@@H](Cc1ccccc1)C(=O)N[C@@H](Cc1ccc(O)cc1)C(N)=O) [Peptide 22]
Activity [1, 4]: active

Arg-D-Ala-Phe-Tyr-me-NH2 (R[dA]FY-NH2; also: 'me' (methyl) after Tyr, site not settled) [Peptide 23]
Activity [1, 4]: active

Arg-D-Ala-Tyr-Phe-NH2 (R[dA]YF-NH2; N-terminus assumed; SMILES C[C@@H](NC(=O)[C@@H](N)CCCNC(=N)N)C(=O)N[C@@H](Cc1ccc(O)cc1)C(=O)N[C@@H](Cc1ccccc1)C(N)=O) [Peptide 24]
Activity [1, 4]: active

Arg-Gly-Ala-Phe-NH2 (RGAF-NH2) [Peptide 14]
Activity [1, 3]: inactive
Activity [1, 4]: inactive

Arg-Gly-Phe-Ala-NH2 (RGFA-NH2) [Peptide 15]
Activity [1, 3]: inactive
Activity [1, 4]: inactive

Arg-Gly-Phe-Cha-NH2 (RGF[Cha]-NH2; N-terminus assumed; SMILES N=C(N)NCCC[C@H](N)C(=O)NCC(=O)N[C@@H](Cc1ccccc1)C(=O)N[C@@H](CC1CCCCC1)C(N)=O) [Peptide 2]
Activity [1, 4]: antagonist
hypoglycaemic effect (reduction of basal blood glucose level) ([2]; listed as Arg-Gly-Phe-Cha): no hypoglycaemic effect
hypoglycaemic effect (reduction of basal blood glucose level) ([2]; listed as peptide 2): significant hypoglycaemic effects

Arg-Gly-Phe-Phe-NH2 (RGFF-NH2) [Peptide 1]
Activity [1, 4]: active
insulin-potentiating activity on in vitro glycogen synthesis (in words) [1]: stimulated glycogen synthesis
hypoglycaemic effect (reduction of basal blood glucose level) ([2]; listed as Arg-Gly-Phe-Phe): reduced basal blood glucose levels
hypoglycaemic effect (reduction of basal blood glucose level) ([2]; listed as peptide 1): significant hypoglycaemic effects

Arg-Gly-Phe-Tyr-NH2 (RGFY-NH2) [Peptide 21]
Activity [1, 3]: inactive
Activity [1, 4]: inactive

Arg-Gly-Tyr-Phe-NH2 (RGYF-NH2) [Peptide 19]
Activity [1, 4]: active

Arg-Leu-Phe-Asp-Asn-Ala (RLFDNA-NH2) [Peptide 5]
Activity [1, 3]: inactive
insulin-potentiating activity on in vitro glycogen synthesis (in words) [1]: abolished
hypoglycaemic effect (reduction of basal blood glucose level) [2]: no hypoglycaemic effect
insulin-potentiating effect on decreasing blood glucose in IVITT (in words) (normal male Wistar rats; listed as Asn^11-hGH(8-13)): no such effect
insulin-potentiating effect on decreasing blood glucose in IVITT (in words) (normal male Wistar rats; listed as linear hGH(8-13)): no activity
Reduction in Blood Glucose (normal male Wistar rats; 15 min): 0.90 ± 0.09 mmol/L
Reduction in Blood Glucose (normal male Wistar rats; 30 min): 1.01 ± 0.11 mmol/L
Reduction in Blood Glucose (normal male Wistar rats; 45 min): 1.07 ± 0.15 mmol/L
Reduction in Blood Glucose (normal male Wistar rats; 60 min): 1.06 ± 0.12 mmol/L

Arg-Leu-Phe-Asu-Asn-Ala (RLFDNA-NH2) [Peptide 6]
insulin-potentiating activity on in vitro glycogen synthesis (in words) [1]: diminished insulin-potentiating effect
hypoglycaemic effect (reduction of basal blood glucose level) [2]: significant hypoglycaemic effects
hypoglycaemic effect (reduction of basal blood glucose level) ([2]; listed as Asu^11-hGH(8-13) amide): diminished insulin-potentiating effect
insulin-potentiating effect on decreasing blood glucose in IVITT (in words) (normal male Wistar rats): significant
insulin-potentiating effect on decreasing blood glucose in IVITT (in words) (normal male Wistar rats; listed as Asu^11-hGH(8-13)): lower potency
Reduction in Blood Glucose (normal male Wistar rats; 15 min): 0.93 ± 0.17 mmol/L
Reduction in Blood Glucose (normal male Wistar rats; 30 min): 1.58 ± 0.12 mmol/L
Reduction in Blood Glucose (normal male Wistar rats; 45 min): 1.50 ± 0.15 mmol/L
Reduction in Blood Glucose (normal male Wistar rats; 60 min): 1.50 ± 0.19 mmol/L

Arg-Leu-Phe-Phe-NH2 (RLFF-NH2) [Peptide 4]
Activity [1, 4]: active

Arg-β-Ala-Phe-Phe (R[βAla]FF; not fully specified (C-terminus); printed as Arg-β-Ala-Phe-Phe) [Peptide 18]
Activity [1, 4]: active

Leu-Ser-Arg-Leu-Gly-Asu-Asn-Ala (LSRLGDNA-NH2; not fully specified; printed as Leu-Ser-Arg-Leu-Gly-Asu-Asn-Ala) [Peptide 11]
Activity [1, 3]: inactive
Reduction in Blood Glucose (normal male Wistar rats; 15 min): 0.68 ± 0.05 mmol/L
Reduction in Blood Glucose (normal male Wistar rats; 30 min): 0.96 ± 0.06 mmol/L
Reduction in Blood Glucose (normal male Wistar rats; 45 min): 1.08 ± 0.08 mmol/L
Reduction in Blood Glucose (normal male Wistar rats; 60 min): 1.12 ± 0.06 mmol/L

Leu-Ser-Arg-Leu-Tyr-Asu-Asn-Ala (LSRLYDNA-NH2; not fully specified; printed as Leu-Ser-Arg-Leu-Tyr-Asu-Asn-Ala) [Peptide 10]
insulin-potentiating effect on decreasing blood glucose in IVITT (in words) (normal male Wistar rats): significant
Reduction in Blood Glucose (normal male Wistar rats; 15 min): 1.03 ± 0.10 mmol/L
Reduction in Blood Glucose (normal male Wistar rats; 30 min): 1.52 ± 0.12 mmol/L
Reduction in Blood Glucose (normal male Wistar rats; 45 min): 1.62 ± 0.18 mmol/L
Reduction in Blood Glucose (normal male Wistar rats; 60 min): 1.60 ± 0.34 mmol/L

Leu-Ser-Gly-Leu-Phe-Asu-Asn-Ala (LSGLFDNA-NH2; not fully specified; printed as Leu-Ser-Gly-Leu-Phe-Asu-Asn-Ala) [Peptide 9]
Activity [1, 3]: inactive
Reduction in Blood Glucose (normal male Wistar rats; 15 min): 0.87 ± 0.12 mmol/L
Reduction in Blood Glucose (normal male Wistar rats; 30 min): 0.80 ± 0.14 mmol/L
Reduction in Blood Glucose (normal male Wistar rats; 45 min): 0.88 ± 0.15 mmol/L
Reduction in Blood Glucose (normal male Wistar rats; 60 min): 0.74 ± 0.16 mmol/L

Leu-Ser-Lys-Leu-Phe-Asu-Asn-Ala (LSKLFDNA-NH2; not fully specified; printed as Leu-Ser-Lys-Leu-Phe-Asu-Asn-Ala) [Peptide 8]
insulin-potentiating activity on in vitro glycogen synthesis (in words) [1]: active
insulin-potentiating effect on decreasing blood glucose in IVITT (in words) (normal male Wistar rats): significant
Reduction in Blood Glucose (normal male Wistar rats; 15 min): 1.08 ± 0.10 mmol/L
Reduction in Blood Glucose (normal male Wistar rats; 30 min): 1.35 ± 0.14 mmol/L
Reduction in Blood Glucose (normal male Wistar rats; 45 min): 1.92 ± 0.17 mmol/L
Reduction in Blood Glucose (normal male Wistar rats; 60 min): 1.78 ± 0.17 mmol/L

Lys-Gly-Phe-Phe (KGFF-NH2) [Peptide 16]
Activity [1, 3]: inactive
insulin-potentiating activity on in vitro glycogen synthesis (in words) [1]: loss of activity

RG[Cha]F-NH2 [Peptide 20]
Activity [1, 4]: antagonist

[Orn]GFF [Peptide 17]
Activity [1, 3]: inactive
insulin-potentiating activity on in vitro glycogen synthesis (in words) [1]: loss of activity

insulin: exogenous insulin tested alone on hemidiaphragm glycogen synthesis (FIG. 1)
rate of glycogen synthesis ([1]; 0.33 mU/ml insulin alone): 0.52±0.05 μmol/g tissue/hr
rate of glycogen synthesis ([1]; 1 mU/ml insulin alone): 0.60±0.04 μmol/g tissue/hr
rate of glycogen synthesis ([1]; 3.33 mU/ml insulin alone): 1.27±0.06 μmol/g tissue/hr
rate of glycogen synthesis ([1]; 10 mU/ml insulin alone): 1.52±0.07 μmol/g tissue/hr
